How the values were obtained:
Test in all cases: relative viability (nuclei count vs DMSO), 5 days (fraction); higher = more cells survive
[1] = compound: CN(NC(=O)CC(=O)NN(C)C(=S)c1ccccc1)C(=S)c1ccccc1 [Elesclomol] + C[C@@H](Oc1cc(-c2cnn(C3CCNCC3)c2)cnc1N)c1c(Cl)ccc(F)c1Cl [Crizotinib] (partner 1 µM)
How it was run: (§1)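 Medians of duplicate plates are given as relative viability. That measure is the nuclei count in treated wells divided by the count in vehicle wells. Counts were taken on 4× images of lung cancer cell lines in 1536-well plates, 5 days after pin-tool dosing the day after seeding with one drug alone or a fixed anchor-drug dose plus five library-drug doses (not always all listed) in √10 steps.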

[2] = compound: CN(NC(=O)CC(=O)NN(C)C(=S)c1ccccc1)C(=S)c1ccccc1 [Elesclomol] + CS(=O)(=O)N1CCN(Cc2cc3nc(-c4cccc5[nH]ncc45)nc(N4CCOCC4)c3s2)CC1 [Pictilisib] (partner 1 µM)
How it was run: as §1

[3] = compound: CN(NC(=O)CC(=O)NN(C)C(=S)c1ccccc1)C(=S)c1ccccc1 [Elesclomol] + CS(=O)(=O)CCNCc1ccc(-c2ccc3ncnc(Nc4ccc(OCc5cccc(F)c5)c(Cl)c4)c3c2)o1 [Lapatinib] (partner 2 µM)
How it was run: as §1

[4] = compound: CN(NC(=O)CC(=O)NN(C)C(=S)c1ccccc1)C(=S)c1ccccc1 [Elesclomol] + N=C(N)NC(=N)NCCc1ccccc1 [Phenformin] (partner 250 µM)
How it was run: as §1

[5] = compound: CN(NC(=O)CC(=O)NN(C)C(=S)c1ccccc1)C(=S)c1ccccc1 [Elesclomol] + CC1(C)CCC(c2ccc(Cl)cc2)=C(CN2CCN(c3ccc(C(=O)NS(=O)(=O)c4ccc(N[C@H](CCN5CCOCC5)CSc5ccccc5)c(S(=O)(=O)C(F)(F)F)c4)cc3)CC2)C1 [Navitoclax] (partner 0.5 µM)
How it was run: as §1

[6] = compound: CN(NC(=O)CC(=O)NN(C)C(=S)c1ccccc1)C(=S)c1ccccc1 [Elesclomol] + COc1cc2c(Oc3ccc(NC(=O)C4(C(=O)Nc5ccc(F)cc5)CC4)cc3F)ccnc2cc1OCCCN1CCOCC1 [Foretinib] (partner 0.25 µM)
How it was run: as §1

[7] = compound: CN(NC(=O)CC(=O)NN(C)C(=S)c1ccccc1)C(=S)c1ccccc1 [Elesclomol] + Cc1nc(NC(=O)N2CCC[C@H]2C(N)=O)sc1-c1ccnc(C(C)(C)C(F)(F)F)c1 [Alpelisib] (partner 2 µM)
How it was run: as §1

[8] = compound: CN(NC(=O)CC(=O)NN(C)C(=S)c1ccccc1)C(=S)c1ccccc1 [Elesclomol] + C[C@]1(O)C[C@@H](c2nc(-c3ccc4ccc(-c5ccccc5)nc4c3)c3c(N)nccn32)C1 [Linsitinib] (partner 1 µM)
How it was run: as §1

[9] = compound: CN(NC(=O)CC(=O)NN(C)C(=S)c1ccccc1)C(=S)c1ccccc1 [Elesclomol] + O=C(c1cc(Cc2n[nH]c(=O)c3ccccc23)ccc1F)N1CCN(C(=O)C2CC2)CC1 [Olaparib] (partner 8 µM)
How it was run: as §1

[10] = compound: CN(NC(=O)CC(=O)NN(C)C(=S)c1ccccc1)C(=S)c1ccccc1 [Elesclomol] + Nc1ncn([C@H]2C[C@H](O)[C@@H](CO)O2)c(=O)n1 [Decitabine] (partner 2 µM)
How it was run: as §1

[11] = compound: CN(NC(=O)CC(=O)NN(C)C(=S)c1ccccc1)C(=S)c1ccccc1 [Elesclomol]
How it was run: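 Lung cancer cell lines received five library-drug doses (not always all listed) spaced by √10, pinned on vehicle-anchored 1536-well plates after an overnight stay at 37 °C. Five days later, with no medium change, nuclei were Hoechst-stained, imaged at 4× and counted with MetaXpress. Viability is treated-well nuclei relative to vehicle-well nuclei, as a median across plates. Passing plates had control CV below 25% and at least one doubling.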

[12] = compound: CN(NC(=O)CC(=O)NN(C)C(=S)c1ccccc1)C(=S)c1ccccc1 [Elesclomol] + CC(C)C[C@H](NC(=O)[C@H](Cc1ccccc1)NC(=O)c1cnccn1)B(O)O [Bortezomib] (partner 0.002 µM)
How it was run: as §1

A549
relative viability ([1]; first compound 0.003162 µM): 0.445 | relative viability ([1]; first compound 0.01 µM): 0.239 | relative viability ([1]; first compound 0.03162 µM): 0.0617 | relative viability ([1]; first compound 0.1 µM): 0.0458 | relative viability ([2]; first compound 0.003162 µM): 0.493 | relative viability ([2]; first compound 0.01 µM): 0.246 | relative viability ([2]; first compound 0.03162 µM): 0.1 | relative viability ([2]; first compound 0.1 µM): 0.0728 | relative viability ([3]; first compound 0.003162 µM): 0.74 | relative viability ([3]; first compound 0.01 µM): 0.174 | relative viability ([3]; first compound 0.03162 µM): 0.29 | relative viability ([3]; first compound 0.1 µM): 0.058 | relative viability ([4]; first compound 0.003162 µM): 0.0993 | relative viability ([4]; first compound 0.01 µM): 0.0488 | relative viability ([4]; first compound 0.03162 µM): 0.0406 | relative viability ([4]; first compound 0.1 µM): 0.0078 | relative viability ([5]; first compound 0.003162 µM): 0.798 | relative viability ([5]; first compound 0.01 µM): 0.181 | relative viability ([5]; first compound 0.03162 µM): 0.0437 | relative viability ([5]; first compound 0.1 µM): 0.03 | relative viability ([6]; first compound 0.003162 µM): 0.886 | relative viability ([6]; first compound 0.01 µM): 0.504 | relative viability ([6]; first compound 0.03162 µM): 0.0597 | relative viability ([6]; first compound 0.1 µM): 0.0242 | relative viability ([7]; first compound 0.003162 µM): 0.731 | relative viability ([7]; first compound 0.01 µM): 0.229 | relative viability ([7]; first compound 0.03162 µM): 0.0735 | relative viability ([7]; first compound 0.1 µM): 0.0217 | relative viability ([8]; first compound 0.003162 µM): 0.627 | relative viability ([8]; first compound 0.01 µM): 0.501 | relative viability ([8]; first compound 0.03162 µM): 0.378 | relative viability ([8]; first compound 0.1 µM): 0.097 | relative viability ([9]; first compound 0.003162 µM): 0.289 | relative viability ([9]; first compound 0.01 µM): 0.22 | relative viability ([9]; first compound 0.03162 µM): 0.189 | relative viability ([9]; first compound 0.1 µM): 0.0697 | relative viability ([10]; first compound 0.003162 µM): 0.293 | relative viability ([10]; first compound 0.01 µM): 0.22 | relative viability ([10]; first compound 0.03162 µM): 0.261 | relative viability ([10]; first compound 0.1 µM): 0.133 | relative viability ([11]; 0.003162 µM): 0.912 | relative viability ([11]; 0.01 µM): 0.417 | relative viability ([11]; 0.03162 µM): 0.24 | relative viability ([11]; 0.1 µM): 0.0637

Calu-6
relative viability ([1]; first compound 0.003162 µM): 0.501 | relative viability ([1]; first compound 0.01 µM): 0.222 | relative viability ([1]; first compound 0.03162 µM): 0.247 | relative viability ([1]; first compound 0.1 µM): 0.121 | relative viability ([2]; first compound 0.003162 µM): 0.573 | relative viability ([2]; first compound 0.01 µM): 0.239 | relative viability ([2]; first compound 0.03162 µM): 0.164 | relative viability ([2]; first compound 0.1 µM): 0.111 | relative viability ([3]; first compound 0.003162 µM): 0.602 | relative viability ([3]; first compound 0.01 µM): 0.276 | relative viability ([3]; first compound 0.03162 µM): 0.3 | relative viability ([3]; first compound 0.1 µM): 0.12 | relative viability ([12]; first compound 0.003162 µM): 0.787 | relative viability ([12]; first compound 0.01 µM): 0.322 | relative viability ([12]; first compound 0.03162 µM): 0.16 | relative viability ([12]; first compound 0.1 µM): 0.155 | relative viability ([5]; first compound 0.003162 µM): 0.476 | relative viability ([5]; first compound 0.01 µM): 0.166 | relative viability ([5]; first compound 0.03162 µM): 0.122 | relative viability ([5]; first compound 0.1 µM): 0.0729 | relative viability ([6]; first compound 0.003162 µM): 0.511 | relative viability ([6]; first compound 0.01 µM): 0.15 | relative viability ([6]; first compound 0.03162 µM): 0.0883 | relative viability ([6]; first compound 0.1 µM): 0.0356 | relative viability ([7]; first compound 0.003162 µM): 0.727 | relative viability ([7]; first compound 0.01 µM): 0.243 | relative viability ([7]; first compound 0.03162 µM): 0.229 | relative viability ([7]; first compound 0.1 µM): 0.127 | relative viability ([8]; first compound 0.003162 µM): 0.737 | relative viability ([8]; first compound 0.01 µM): 0.223 | relative viability ([8]; first compound 0.03162 µM): 0.285 | relative viability ([8]; first compound 0.1 µM): 0.153 | relative viability ([9]; first compound 0.003162 µM): 0.477 | relative viability ([9]; first compound 0.01 µM): 0.219 | relative viability ([9]; first compound 0.03162 µM): 0.177 | relative viability ([9]; first compound 0.1 µM): 0.121 | relative viability ([11]; 0.003162 µM): 0.768 | relative viability ([11]; 0.01 µM): 0.317 | relative viability ([11]; 0.03162 µM): 0.304 | relative viability ([11]; 0.1 µM): 0.138

EBC-1
relative viability ([1]; first compound 0.003162 µM): 0.18 | relative viability ([1]; first compound 0.01 µM): 0.199 | relative viability ([1]; first compound 0.03162 µM): 0.151 | relative viability ([1]; first compound 0.1 µM): 0.135 | relative viability ([2]; first compound 0.003162 µM): 0.335 | relative viability ([2]; first compound 0.01 µM): 0.17 | relative viability ([2]; first compound 0.03162 µM): 0.156 | relative viability ([2]; first compound 0.1 µM): 0.148 | relative viability ([3]; first compound 0.003162 µM): 0.239 | relative viability ([3]; first compound 0.01 µM): 0.183 | relative viability ([3]; first compound 0.03162 µM): 0.177 | relative viability ([3]; first compound 0.1 µM): 0.157 | relative viability ([12]; first compound 0.003162 µM): 0.497 | relative viability ([12]; first compound 0.01 µM): 0.436 | relative viability ([12]; first compound 0.03162 µM): 0.208 | relative viability ([12]; first compound 0.1 µM): 0.156 | relative viability ([5]; first compound 0.003162 µM): 0.374 | relative viability ([5]; first compound 0.01 µM): 0.228 | relative viability ([5]; first compound 0.03162 µM): 0.146 | relative viability ([5]; first compound 0.1 µM): 0.132 | relative viability ([6]; first compound 0.003162 µM): 0.11 | relative viability ([6]; first compound 0.01 µM): 0.1 | relative viability ([6]; first compound 0.03162 µM): 0.0784 | relative viability ([6]; first compound 0.1 µM): 0.0763 | relative viability ([7]; first compound 0.003162 µM): 0.733 | relative viability ([7]; first compound 0.01 µM): 0.354 | relative viability ([7]; first compound 0.03162 µM): 0.268 | relative viability ([7]; first compound 0.1 µM): 0.206 | relative viability ([8]; first compound 0.003162 µM): 0.892 | relative viability ([8]; first compound 0.01 µM): 0.614 | relative viability ([8]; first compound 0.03162 µM): 0.484 | relative viability ([8]; first compound 0.1 µM): 0.227 | relative viability ([9]; first compound 0.003162 µM): 0.655 | relative viability ([9]; first compound 0.01 µM): 0.544 | relative viability ([9]; first compound 0.03162 µM): 0.487 | relative viability ([9]; first compound 0.1 µM): 0.291 | relative viability ([11]; 0.003162 µM): 0.983 | relative viability ([11]; 0.01 µM): 0.74 | relative viability ([11]; 0.03162 µM): 0.506 | relative viability ([11]; 0.1 µM): 0.349
